“And” between values parts separate entries of the source, which are not always exact repeats. Equal values may be shown once. Ends that are not written are not given here. FAM = 5(6)-carboxyfluorescein; Ahx = NCCCCCC(=O)O
What was measured:
MEMs in WT-GBM tumors = experiment: Free peptide homing and immunofluorescence in the orthotopic WT-GBM glioblastoma model; settings: 30 nmoles i.v., 2 h
Protocol: (§1) Thirty nmoles of FAM-UNO or FAM-control peptide were injected intravenously into mice and allowed to circulate for 2 h. Mice were then sacrificed and tumor and tissues were analyzed by immunofluorescence using rabbit anti-FAM (green) and rat anti-CD206 (red) antibodies, and counterstained with DAPI. […] The metastases were induced by i.v. inoculation of B16F10 melanoma cells. […] Blue: DAPI. Representative fields from multiple sections (n≥3) prepared from at least 3 tumors are shown. Scale bar: 50 μm. Images shown are representative fields from multiple sections (≥3) prepared from at least 3 tumors (n≥3 mice). The graphs show mean+SEM of FAM signal quantified as described in Materials and Methods.
(§2) Tumor models were induced according to protocols approved by the Estonian Ministry of Agriculture, Committee of Animal Experimentation (permit #48). For the 4T1 breast model, 8-week old female Balb/c mice were injected in the mammary fat pad with 10^6 cells dispersed in 50 μL of PBS. For homing studies, mice were used 10 days later, when the tumor had reached ˜150 mm^3. For MCF-7 breast model, 8-week old female nude mice were implanted with an estrogen pellet, and 1 week later inoculated with 5×10^6 MCF-7 cells in 100 μL of cold Matrigel (BD Biosciences, CA, USA). Mice were used for homing studies three weeks later (tumor volume˜150 mm^3). For the metastatic gastric carcinoma, 10^6 MKN45-P cells in PBS were injected intraperitoneally in 8-week old female nude mice. Mice were used for homing studies two weeks later. For the metastatic melanoma model, 2×10^5 B16F10 cells were injected intravenously in 100 μL of PBS in C57 BL6 mice. The mice were used for homing studies 10 days after. For the angiogenic glioblastoma model, WT-GBM 24, 7×10^5 cells were stereotactically injected in the right striatum of Fox/Nu mice 2 mm lateral and posterior of bregma of 2.5 mm deep. The mice were used for homing studies 6-7 days after the injection.
For free peptide homing studies, mice were injected intravenously with 30 nmoles of FAM-peptides in 100 μL of PBS. For nanoparticle homing studies-FAM-UNO—NP-PTX-, mice were injected intravenously in mice bearing MCF-7 breast tumors with 1 mg of Polymer in 100 μL pf PBS and allowed to circulate for 6 h. For tissue collection, the mice were anesthetized and the tissues collected and immediately placed in 4% cold PFA and left overnight at 4-C. Tissues were washed with PBS for 2 h at room temperature and cryoprotected with sucrose 15% at 4-C overnight and then in sucrose 30% at 4·C overnight. […] FAM was detected using Rabbit anti-FITC (Invitrogen, CA, USA. Catalog # A-889) at a dilution of 1/100 and using Alexa Fluor-546 anti-rabbit antibody (Invitrogen, Ca, USA. Catalog # A-11035) at a dilution of 1/200.

[1] = system: peritoneal cells (CCR2+ macrophages) of 4T1 tumor-bearing mice; experiment: Flow cytometry of FAM-peptide binding to peritoneal cells from 4T1 tumor mice; type: cell-based, mouse
Protocol: A, Change in fluorescence anisotropy of FAM-UNO (dotted line) and FAM-UNO in DTT (solid line) while incubating with mouse recombinant CD206. B, Change in fluorescence anisotropy of FAM-CSPGAK with mouse recombinant CD206 (solid line) or with CD163 (dotted line) and of FAM-CPMTDNE (control) with CD206 (dashed line). C, FAM-UNO binds selectively to CCR2^+ macrophages collected from the peritoneal cavity of 4T1 tumor-bearing mice, as 94.3% of FAM^+ cells are CCR2^+ cells. The analysis was done gating for the FAM^+ population (left panel). In these 4T1 tumor bearing mice, 58% of peritoneal cells are macrophages, i.e. CCR2^+ cells (right panel). D, FAM-UNO binding to peritoneal cells is inhibited by preincubating with 10 µg/mL of anti-CD206, whereas the preincubation with anti CD206 antibody had no effect on FAM-LyP-1 binding. In panels A and D are shown representative graphs from three independent experiments. In panels c and d are shown results from three independent experiments (n=3 mice) and bars of panel D represents mean+SEM.
Peritoneal cells were extracted from Balb/c mice 2 weeks after inoculation of 10^6 cells orthotopically). Mice were anesthetized and intraperitoneally injected with 5 mL of PBS+1% BSA, the abdomen was massaged to detach macrophages and the peritoneal fluid was collected. This procedure typically yielded 5-9×10^6 cells. Cells were concentrated to 1 mL in the same peritoneal fluid. For FAM-peptide incubation, the peptides were incubated for 30 minutes at 4° C. For antibody incubation the cells were incubated with antibody for 1 h at 4° C. A647 Rat anti-CCR2 (Biolegend, CA, USA. Catalog number 150603) was incubated for 1 h at 4° C. at a dilution of 1/200. FAM-peptides were incubated at a concentration of 0.5 μg/mL, and Rat anti-CD206 (Bio-Rad, CA, USA. Product code MCA2235GA) was incubated at a concentration of 10 μg/mL. Binding of FAM-peptides was monitored with 488 nm channel and CCR2 labeling was assessed in the 647 nm channel using A647 Anti-CCR2 (Biolegend, CA, USA). After incubation of FAM-Peptides or antibodies, the cells were washed 3 times at 4° C. with PBS-Tby centrifugation at 250 g for 6 minutes, followed by flow cytometry analysis (Accuri, BD Biosciences, CA, USA).

MEMs in MKN45-P tumors = settings: 30 nmoles i.v., 2 h
Protocol: as §1
as §2, with “For the angiogenic glioblastoma model, WT-GBM 24, 7×10^5 cells were stereotactically injected in the right striatum of Fox/Nu mice 2 mm lateral and posterior of bregma of 2.5 mm deep. The mice were used for homing studies 6-7 days after the injection.” left out
For free peptide homing studies, mice were injected intravenously with 30 nmoles of FAM-peptides in 100 μL of PBS. […] FAM was detected using Rabbit anti-FITC (Invitrogen, CA, USA. Catalog # A-889) at a dilution of 1/100 and using Alexa Fluor-546 anti-rabbit antibody (Invitrogen, Ca, USA. Catalog # A-11035) at a dilution of 1/200.

Substance: FAM-UNO: FAM-labeled UNO peptide CSPGAKVRC (SEQ ID NO: 1); 5(6)-carboxyfluorescein with 6-aminohexanoic acid spacer at the N-terminus ({FAM-Ahx}-CSPGAKVRC; cysteine pairing not given here)
- accumulation in tumor (MEMs in WT-GBM tumors): accumulated in the tumor areas containing MEMs
- signal in normal brain parenchyma (MEMs in WT-GBM tumors): No signal
- cells gated for CCR2+ that were positive for FAM-UNO binding ([1]; 0.5 μg/mL peptide, 30 min, 4 °C): 94%
- reduction of binding to peritoneal cells by pre-incubation with anti-CD206 antibody ([1]; anti-CD206 10 μg/mL): 25%
- FAM+ cells that are CCR2+ cells (macrophages) ([1]; gated for the FAM+ population, 0.5 μg/mL peptide, 30 min, 4 °C): 94.3% and 95%
- accumulation in MEMs / CD206+ cells (MEMs in MKN45-P tumors): accumulated in MEMs
